In US20250312320A1, “METHOD AND TREATMENT FOR OSTEOARTHRITIS AND DISEASES OF CHONDROCYTE HYPERTROPHY” (The Royal Veterinary College, priority 2022, published 2025):

What was measured:
[1] = tested on: primary canine articular chondrocytes; assay: Primary canine articular chondrocytes in chondrogenesis and IL1β OA disease model: gene expression; assay type: cell-based; conditions: 100 nM
Description: Articular cartilage was isolated, placed into a petri dish containing phosphate buffer saline (PBS) supplemented with 2% Ab/Am (PBS-Ab/Am) and transferred to a laminar flow hood for processing. Cartilage shavings were minced using a sterile scalpel to approximately 1 mm^3 and washed in fresh PBS-Ab/Am by centrifugation at 500×g for 10 minutes. Supernatant was removed and the cartilage pellet resuspended in 5 ml TrypLE™ (Gibco) before incubation at 37° C. for 10 minutes with gentle agitation. Dissociated cartilage fragments were pelleted and washed to remove excess TrypLE and resuspended in DMEM-complete media (DMEM/F12 (Gibco), 1% Ab/Am, 10% FBS) supplemented with 2 mg/ml Collagenase Type II and incubated overnight at 37° C. with gentle agitation. The cartilage digest was pelleted, washed and subsequently resuspended in DMEM-complete. Released cells were counted using a haematocytometer and seeded at 10,000 cells per cm^2. The cultures were incubated at 37° C., 5% CO2 in a humidified incubator for 2 days before refreshing DMEM-complete every 2 days until confluency. For differentiation experiments, primary chondrocytes were differentiated in DMEM/F12 containing 2% FBS, 1% Ab/Am, 1× Insulin-Transferrin-Selenium premix, 10 ng/ml TGFβ3 (primary chondrocyte differentiation media).
Additional experiments were carried out on primary chondrocytes (equine, canine and human) and ihMSC (TERT immortalised human mesenchymal stromal cell line) to investigate whether CDK8i protects from IL-1β induced degradation when added throughout the entirety of differentiation/IL-1β treatment. Briefly, ihMSCs were seeded at a density of 5×10^4 cells per 10 μl micromass and differentiated in ihMSC chondrogenic media (1% FBS, 1% Ab/Am, 1× Insulin-Transferrin-Selenium premix, 10 μM Y-27632, 100 nM dexamethasone, 50 μg/ml ascorbic acid, 20 ng/ml TGF-β3 (Peprotech)). Primary chondrocytes were seeded at 2.7×10^5 cells per 10 μl micromass and differentiated in primary chondrocyte differentiation media. All micromasses were differentiated for 12 days in the presence of 100 nM […] or DMSO. Some micromasses were processed for gene expression analysis/alcian blue staining on day 12, whilst others were treated with IL-β media (1% FBS, 1% Ab/Am, 10 ng/ml IL-1B) and CDK8i for 48-hours before processing for alcian blue staining/gene expression analysis on day 14 as previously described.

ATDC5 micromasses = assay: RNA sequencing of BI1347 treated ATDC5 micromasses; assay type: cell-based, mouse; conditions: 1 μM vs DMSO
Description: 2.7×10^5 ATDC5 cells were seeded in a 10 μl micromasses and differentiated in the presence of 1 μM BI1347 or DMSO control for 7 days before RNA extraction as previously described. Two wells were pooled per extraction and treatment conditions were set up in triplicate.
Total RNA quantification and integrity was determined via Bioanalyzer 2100 (Agilent) and RNA samples with an integrity number above 9.0 were processed for RNA sequencing.
The RNA library was formed by polyA capture using poly-T oligo attached magnetic beads and subsequently reverse transcribed for cDNA synthesis and library construction. The library was then sequenced using the Illumina PE150 technology and clean reads with high quality data were taken forward for downstream analysis. Paired-end clean reads were aligned to the Mus Musculus reference genome and reads numbers mapped to each gene. Fragments Per Kilobase of transcript sequence per Millions base pairs sequenced (FPKM) of each gene was calculated based on the length of the gene and reads count mapped to the gene.
Differential expression analysis of BI1347 treatment versus DMSO control was performed. Genes with an adjusted P-value≤0.05 and a fold change≥2 were considered differentially expressed.
Cluster analysis was carried out on all the differentially expressed genes in each group and biological replicate using hierarchical clustering to cluster the FPKM values of genes.
Genes of interest relating to chondrocyte hypertrophy and cartilage homeostasis were identified.

Question: For `Cc1n[nH]c2ncc(C(=O)N3CCC[C@H]3c3ccc(Cl)cc3)cc12` [MSC2530818], which “ACAN gene expression, increase vs DMSO” value ([1]; OA disease model (+IL1β), N=1) is on record?
Answer: Its value is 3 fold.

Question: And the “CNMD gene expression, increase vs DMSO” value ([1]; OA disease model (+IL1β), N=1)?
Answer: Its value is 6 fold.

Question: What about the “MATN3 gene expression, increase vs DMSO” value ([1]; OA disease model (+IL1β), N=1) of the same compound?
Answer: Its value is 6 fold.

Question: What about the “SMOC2 gene expression, increase vs DMSO” value ([1]; OA disease model (+IL1β), N=1) of the same compound?
Answer: The value was 2 fold.

Question: What about the “COL2A1 gene expression, increase vs DMSO” value ([1]; OA disease model (+IL1β), ns) of the same compound?
Answer: The value was 13 fold.

Question: And the “TIMP4 gene expression, increase vs DMSO” value ([1]; OA disease model (+IL1β), ns)?
Answer: Its value is 1.1 fold.

Question: And the “ACAN gene expression, increase vs DMSO” value ([1]; chondrogenic (−IL1β), N=1)?
Answer: The value was 2 fold.

Question: What about the “CNMD gene expression, increase vs DMSO” value ([1]; chondrogenic (−IL1β), N=1) of the same compound?
Answer: The value was 7 fold.

Question: And the “COL2A1 gene expression, increase vs DMSO” value ([1]; chondrogenic (−IL1β), N=1)?
Answer: Its value is 5 fold.

Question: And the “MATN3 gene expression, increase vs DMSO” value ([1]; chondrogenic (−IL1β), N=1)?
Answer: Its value is 2 fold.

Question: And the “SMOC2 gene expression, increase vs DMSO” value ([1]; chondrogenic (−IL1β), N=1)?
Answer: Its value is 2 fold.

Question: What about the “TIMP4 gene expression, increase vs DMSO” value ([1]; chondrogenic (−IL1β), N=1) of the same compound?
Answer: The value was 4 fold.

Question: What about the “ADAMTS5 gene expression, reduction vs DMSO” value ([1]; disease model (+IL1β), ns) of the same compound?
Answer: Its value is 1.4 fold.

Question: For `CN(C)C(=O)Cn1cc(-c2ccc(-c3cncc4ccccc34)cc2)cn1` [BI1347], which “enrichment of downregulated biological process: innate immune response” value (ATDC5 micromasses; day 7, Gene Ontology) is on record?
Answer: Its value is 3 fold.

Question: What about the “enrichment of downregulated biological process: response to cytokines” value (ATDC5 micromasses; day 7, Gene Ontology) of the same compound?
Answer: The value was 3 fold.

Question: And the “enrichment of downregulated biological process: response to interferon-beta” value (ATDC5 micromasses; day 7, Gene Ontology)?
Answer: Its value is 15 fold.

Question: What about the “enrichment of upregulated biological process: Chondrocyte differentiation” value (ATDC5 micromasses; day 7, Gene Ontology) of the same compound?
Answer: The value was 6 fold.

Question: What about the “enrichment of upregulated biological process: Collagen fibril organisation” value (ATDC5 micromasses; day 7, Gene Ontology) of the same compound?
Answer: The value was 10 fold.

Question: What about the “enrichment of upregulated biological process: cartilage development” value (ATDC5 micromasses; day 7, Gene Ontology) of the same compound?
Answer: The value was 5.5 fold.

Question: And the “enrichment of upregulated biological process: extracellular matrix organisation” value (ATDC5 micromasses; day 7, Gene Ontology)?
Answer: Its value is 5 fold.

Question: What about the “Log2 Fold Change ACAN” value (ATDC5 micromasses; RNA-Seq, day 7) of the same compound?
Answer: Its value is 2.40.

Question: What about the “Log2 Fold Change ADAMT S4” value (ATDC5 micromasses; RNA-Seq, day 7) of the same compound?
Answer: Its value is −1.58.

Question: What about the “Log2 Fold Change AXIN2” value (ATDC5 micromasses; RNA-Seq, day 7) of the same compound?
Answer: Its value is −2.38.

Question: What about the “Log2 Fold Change BARX2” value (ATDC5 micromasses; RNA-Seq, day 7) of the same compound?
Answer: The value was 6.42.

Question: What about the “Log2 Fold Change BGLAP” value (ATDC5 micromasses; RNA-Seq, day 7) of the same compound?
Answer: The value was −1.42.

Question: And the “Log2 Fold Change COL2A1” value (ATDC5 micromasses; RNA-Seq, day 7)?
Answer: The value was 2.69.

Question: And the “Log2 Fold Change COL9A3” value (ATDC5 micromasses; RNA-Seq, day 7)?
Answer: The value was 4.44.

Question: What about the “Log2 Fold Change COL 13A1” value (ATDC5 micromasses; RNA-Seq, day 7) of the same compound?
Answer: The value was −4.99.

Question: And the “Log2 Fold Change CPA5” value (ATDC5 micromasses; RNA-Seq, day 7)?
Answer: Its value is 7.57.

Question: And the “Log2 Fold Change CPM” value (ATDC5 micromasses; RNA-Seq, day 7)?
Answer: Its value is 6.76.

Question: And the “Log2 Fold Change F5” value (ATDC5 micromasses; RNA-Seq, day 7)?
Answer: Its value is 6.76.

Question: And the “Log2 Fold Change FGFR3” value (ATDC5 micromasses; RNA-Seq, day 7)?
Answer: The value was 1.75.

Question: What about the “Log2 Fold Change GALNT17” value (ATDC5 micromasses; RNA-Seq, day 7) of the same compound?
Answer: Its value is 6.56.

Question: And the “Log2 Fold Change GDF5” value (ATDC5 micromasses; RNA-Seq, day 7)?
Answer: The value was 2.39.

Question: And the “Log2 Fold Change GREM1” value (ATDC5 micromasses; RNA-Seq, day 7)?
Answer: Its value is 1.68.

Question: What about the “Log2 Fold Change IBSP” value (ATDC5 micromasses; RNA-Seq, day 7) of the same compound?
Answer: The value was −6.06.

Question: And the “Log2 Fold Change IHH” value (ATDC5 micromasses; RNA-Seq, day 7)?
Answer: The value was −2.65.

Question: What about the “Log2 Fold Change IL-6” value (ATDC5 micromasses; RNA-Seq, day 7) of the same compound?
Answer: The value was −3.23.

Question: What about the “Log2 Fold Change ISG15” value (ATDC5 micromasses; RNA-Seq, day 7) of the same compound?
Answer: Its value is −6.47.

Question: And the “Log2 Fold Change KLK11” value (ATDC5 micromasses; RNA-Seq, day 7)?
Answer: The value was 6.45.

Question: What about the “Log2 Fold Change MATN1” value (ATDC5 micromasses; RNA-Seq, day 7) of the same compound?
Answer: Its value is 5.88.

Question: And the “Log2 Fold Change MATN3” value (ATDC5 micromasses; RNA-Seq, day 7)?
Answer: The value was 5.87.

Question: And the “Log2 Fold Change MEF2C” value (ATDC5 micromasses; RNA-Seq, day 7)?
Answer: The value was −1.58.

Question: What about the “Log2 Fold Change NOG” value (ATDC5 micromasses; RNA-Seq, day 7) of the same compound?
Answer: Its value is 2.08.

Question: What about the “Log2 Fold Change NOSTRIN” value (ATDC5 micromasses; RNA-Seq, day 7) of the same compound?
Answer: The value was −2.00.

Question: And the “Log2 Fold Change P2RY10” value (ATDC5 micromasses; RNA-Seq, day 7)?
Answer: The value was 6.40.

Question: What about the “Log2 Fold Change PHLDA2” value (ATDC5 micromasses; RNA-Seq, day 7) of the same compound?
Answer: Its value is 6.62.

Question: And the “Log2 Fold Change SMOC3” value (ATDC5 micromasses; RNA-Seq, day 7)?
Answer: The value was 2.71.

Question: What about the “Log2 Fold Change SOX5” value (ATDC5 micromasses; RNA-Seq, day 7) of the same compound?
Answer: Its value is 1.16.

Question: What about the “Log2 Fold Change SOX6” value (ATDC5 micromasses; RNA-Seq, day 7) of the same compound?
Answer: The value was 1.11.

Question: What about the “Log2 Fold Change SOX8” value (ATDC5 micromasses; RNA-Seq, day 7) of the same compound?
Answer: The value was 2.65.

Question: What about the “Log2 Fold Change TMEM119” value (ATDC5 micromasses; RNA-Seq, day 7) of the same compound?
Answer: Its value is −4.98.

Question: What about the “log2FoldChange GRHL3” value (ATDC5 micromasses; RNA-Seq, day 7) of the same compound?
Answer: The value was −7.66.

Question: What about the “log2FoldChange MX2” value (ATDC5 micromasses; RNA-Seq, day 7) of the same compound?
Answer: The value was −7.03.

Question: What about the “log2FoldChange OAS1A” value (ATDC5 micromasses; RNA-Seq, day 7) of the same compound?
Answer: Its value is −7.64.

Question: What about the “log2FoldChange OAS2” value (ATDC5 micromasses; RNA-Seq, day 7) of the same compound?
Answer: The value was −11.27.

Question: What about the “log2FoldChange OAS3” value (ATDC5 micromasses; RNA-Seq, day 7) of the same compound?
Answer: The value was −7.22.

Question: What about the “log2FoldChange OASL1” value (ATDC5 micromasses; RNA-Seq, day 7) of the same compound?
Answer: Its value is −10.46.

Question: What about the “log2FoldChange RSAD2” value (ATDC5 micromasses; RNA-Seq, day 7) of the same compound?
Answer: The value was −7.12.

Question: What about the “log2FoldChange SLC36A2” value (ATDC5 micromasses; RNA-Seq, day 7) of the same compound?
Answer: The value was −8.53.

Question: And the “log2FoldChange TRIM30D” value (ATDC5 micromasses; RNA-Seq, day 7)?
Answer: Its value is −7.12.
